Reference: US7714019B2 (priority 2002, dated 2010)

tested on: HIV-1 single-round infectious reporter virus; assay: microbe, parasite or virus in culture; format: cell-based; settings: Human immunodeficiency virus 1, HeLa-CD4/CCR5, 72 h, read-out: EC50 Group from Table 1
Protocol: • Virus production-Human embryonic Kidney cell line, 293, propagated in Dulbecco's Modified Eagle Medium (Life Technologies, Gaithersburg, Md.) containing 10% fetal Bovine serum (FBS, Sigma, St. Louis, Mo.). • Virus infection-Human epithelial cell line, HeLa, expressing the HIV-1 receptors CD4 and CCR5 was propagated in Dulbecco's Modified Eagle Medium (Life Technologies, Gaithersburg, Md.) containing 10% fetal Bovine serum (FBS, Sigma, St. Louis, Mo.) and supplemented with 0.2 mg/mL Geneticin (Life Technologies, Gaithersburg, Md.) and 0.4 mg/mL Zeocin (Invitrogen, Carlsbad, Calif.). Virus—Single-round infectious reporter virus was produced by co-transfecting human embryonic Kidney 293 cells with an HIV-1 envelope DNA expression vector and a proviral cDNA containing an envelope deletion mutation and the luciferase reporter gene inserted in place of HIV-1 nef sequences (Chen et al, Ref. 41). Transfections were performed using lipofectAMINE PLUS reagent as described by the manufacturer (Life Technologies, Gaithersburg, Md.). Experiment • 1. Compound was added to HeLa CD4 CCR5 cells plated in 96 well plates at a cell density of 1×10^3 cells per well in 100 μl Dulbecco's Modified Eagle Medium containing 10% fetal Bovine serum at a concentration of <20 μM. • 2. 100 μl of single-round infectious reporter virus in Dulbecco's Modified Eagle Medium was then added to the plated cells and compound at an approximate multiplicity of infection (MOI) of 0.01, resulting in a final volume of 200 μl per well and a final compound concentration of <10 μM. • 3. Samples were harvested 72 h after infection. • 4. Viral infection was monitored by measuring luciferase expression from viral DNA in the infected cells using a luciferase reporter gene assay kit (Roche Molecular Biochemicals, Indianapolis, Ind.). Infected cell supernatants were removed and 50 μl of Dulbecco's Modified Eagle Medium (without phenol red) and 50 μl of luciferase assay reagent reconstituted as described by the manufacturer (Roche Molecular Biochemicals, Indianapolis, Ind.) was added per well. Luciferase activity was then quantified by measuring luminescence using a Wallac microbeta scintillation counter. • 5. […] An EC50 provides a method for comparing the antiviral potency of the compounds of this invention. The effective concentration for fifty percent inhibition (EC50) was calculated with the Microsoft Excel Xlfit curve fitting software. For each compound, curves were generated from percent inhibition calculated at 10 different concentrations by using a four parameter logistic model (model 205). Table 1 is the key for the data in Table 2. Results

O=C(NC[C@@H]1CCN(C(=O)C(=O)c2c[nH]c3c(-c4cc[nH]n4)ccc(F)c23)C1)c1ccccc1 [Example 12, N-(1-{2-[4-Fluoro-7-(1H-pyrazol-3-yl)-1H-indol-3-yl]-2-oxo-acetyl}-pyrrolidin-3-ylmethyl)-benzamide] and O=C(NC[C@H]1CCN(C(=O)C(=O)c2c[nH]c3c(-c4cc[nH]n4)ccc(F)c23)C1)c1ccccc1 [Example 11, N-(1-{2-[4-Fluoro-7-(1H-pyrazol-3-yl)-1H-indol-3-yl]-2-oxo-acetyl}-pyrrolidin-3-ylmethyl)-benzamide] cannot be ordered by EC50: under 1000 nM for the first, under 1000 nM for the second.

O=C(NC[C@H]1CCN(C(=O)C(=O)c2c[nH]c3c(Br)ccc(F)c23)C1)c1ccccc1 [Example 10, N-{1-[2-(7-Bromo-4-fluoro-1H-indol-3-yl)-2-oxo-acetyl]-pyrrolidin-3-ylmethyl}-benzamide] and O=C(NC[C@@H]1CCN(C(=O)C(=O)c2c[nH]c3c(Br)ccc(F)c23)C1)c1ccccc1 [Example 9, N-{1-[2-(7-Bromo-4-fluoro-1H-indol-3-yl)-2-oxo-acetyl]-pyrrolidin-3-ylmethyl}-benzamide] cannot be ordered by EC50: under 1000 nM for the first, under 1000 nM for the second.

O=C(NCC1CCN(C(=O)C(=O)c2c[nH]c3cccc(F)c23)C1)c1ccccc1 (centres unmarked) [Example 3, N-{1-[2-(4-Fluoro-1H-indol-3-yl)-2-oxo-acetyl]-pyrrolidin-3-ylmethyl}-benzamide] and O=C(NCC1CCN(C(=O)c2ccccc2)C1)C(=O)c1c[nH]c2cccc(F)c12 (centres unmarked) [Example 1, N-(1-Benzoyl-pyrrolidin-3-ylmethyl)-2-(4-fluoro-1H-indol-3-yl)-2-oxo-acetamide] cannot be ordered by EC50: under 1000 nM for the first, under 1000 nM for the second.

Going from CN(C(=O)c1c[nH]c2ccccc12)C1CCN(C(=O)c2ccccc2)C1 (centres unmarked) [Example 14, 1H-Indole-3-carboxylic acid (1-benzoyl-pyrrolidin-3-yl)-methyl-amide] to O=C(NCC1CCCN1C(=O)C(=O)c1c[nH]c2ccccc12)c1ccccc1 (centres unmarked) [Example 13], the EC50 falls from over 5000 nM to under 1000 nM. The second is the more potent here.

First: CNC(=O)c1ccc(F)c2c(C(=O)C(=O)NCC3CCN(C(=O)c4ccccc4)C3)c[nH]c12 (centres unmarked) [Example 8]
Second: O=C(NCC1CCN(C(=O)c2ccccc2)C1)C(=O)c1c[nH]c2c(C(=O)O)ccc(F)c12 (centres unmarked) [Example 7]
The EC50 of the first is lower: under 1000 nM for the first, 1000 to 5000 nM for the second. The first is the more potent here.

Compared with O=C(NCC1CCN(C(=O)C(=O)c2cn(C(=O)c3ccccc3)c3cccc(F)c23)C1)c1ccccc1 (centres unmarked) [Example 4, N-{1-[2-(1-Benzoyl-4-fluoro-1H-indol-3-yl)-2-oxo-acetyl]-pyrrolidin-3-ylmethyl}-benzamide], O=Cc1ccc(F)c2c(C(=O)C(=O)NCC3CCN(C(=O)c4ccccc4)C3)c[nH]c12 (centres unmarked) [Example 5, N-(1-Benzoyl-pyrrolidin-3-ylmethyl)-2-(4-fluoro-7-formyl-1H-indol-3-yl)-2-oxo-acetamide] is higher in EC50: under 1000 nM for the first, 1000 to 5000 nM for the second. The first is the more potent here.

O=C(NCC1CCN(C(=O)c2ccccc2)C1)C(=O)c1c[nH]c2ncccc12 (centres unmarked) [Example 6, N-(1-Benzoyl-pyrrolidin-3-ylmethyl)-2-oxo-2-(1H-pyrrolo[2,3-b]pyridin-3-yl)-acetamide] and CC(C)(C)OC(=O)NCC1CCN(C(=O)C(=O)c2c[nH]c3cccc(F)c23)C1 (centres unmarked) [Example 2, {1-[2-(4-Fluoro-1H-indol-3-yl)-2-oxo-acetyl]-pyrrolidin-3-ylmethyl}-carbamic acid tert-butyl ester] cannot be ordered by EC50: over 5000 nM for the first, over 5000 nM for the second.
